Patent US12290521B2, “Methods and materials for identifying and treating BET inhibitor-resistant cancers” (Mayo Foundation for Medical Education and Research, priority 2018, dated 2025)

Legend:
DU145 cells [1] = test: Clonogenic survival (colony formation) assay; type: cell-based, human; settings: JQ1 for 3 days, harvested at day 10
Description: FIGS. 26A-26I. Determination of the role of DUB3-mediated stabilization of BRD4 in BET inhibitor resistance using both loss of function and gain of function approaches. (FIG. 26A) Western blot analysis of indicated proteins in PC-3 cells infected with lentivirus expressing control or DUB3-specific shRNA for 24 hours and then co-transfected with plasmids for wild-type (WT) and mutants of HA-DUB3 for 24 hours. (FIG. 26B) Western blot analysis of indicated proteins in PC-3 cells infected with lentivirus expressing control or DUB3-specific shRNAs for 24 hours and then co-transfected with the indicated plasmids for 24 hours. Cells were treated with MG132 for 8 hours before harvested. (FIG. 26C) DU145 cells were infected with lentivirus expressing control or DUB3-specific shRNAs. After 48 hours puromycin selection, cells were treated with I-BET (5 μM), PD0332991 (5 μM) or both followed by MTS assay. All data are shown as mean values±SD (n=6). ***P<0.001, n.s., not significant. (FIG. 26D, FIG. 26E) DU145 cells were infected with lentivirus expressing indicated shRNAs and/or plasmids. After 48 hours puromycin selection, cells were treated with JQ1 (2 μM), PD0332991 (5 μM) or both followed by MTS assay (FIG. 26D) and Western blot (FIG. 26E). The quantitative data are shown as mean values±SD (n=6). ***P<0.001, n.s., not significant. (FIG. 26F, FIG. 26G) DU145 cells were infected with lentivirus expressing indicated shRNAs and/or plasmids. After 48 hours puromycin selection, cells were treated with I-BET (5 μM), PD0332991 (5 μM) or both followed by MTS assay (FIG. 26F) and Western blot (FIG. 26G). All data are shown as mean values±SD (n=6). *P<0.05, ***P<0.001, n.s., not significant. (FIG. 26H) DU145 cells were infected with lentivirus expressing control, DUB3 expressing vector and/or control or BRD4-specific shRNAs. After 48 hours puromycin selection, cells were plated for clonogenic survival assay. Cells were treated with a series of JQ1 concentrations for 3 days and harvested at day 10. Colonies with more than 50 cells were counted. IC50 is shown as a dotted line in the middle of the graph. […] OE, overexpression. KD, shRNA-mediated knockdown. (FIG. 26I) DU145 cells were infected with lentivirus as in (FIG. 26H) for 48 hours and then treated with 0.5 μM of JQ1 for 3 days and harvested at day 10. Colonies were photographed and quantified. Data represent means±SEM (n=3); P values were determined by the unpaired two-tailed Student's t-test. *P<0.05, **P<0.01.
An appropriate number of cells for different dosages of JQ1 were plated onto 6-well plate and treated with JQ1 for three days. After three-day treatment, the medium was changed with fresh medium without drugs for another 8 days. […] Colonies with more than 50 cells were counted. […]

DU145 cells [2] = test: Cell proliferation (MTS assay); type: cell-based, human; settings: JQ1 2 μM
Description: Cell proliferation was measured by using the MTS assay (Promega). Prostate cancer cells (2,000 per well) were seeded in 96-well plates with 100 μL of culture medium. Each well was added with 20 μL of CellTiter 96R AQueous One Solution Reagent (Promega) and absorbance was measured in a microplate reader at 490 nm.
The cells then were treated with vehicle (DMSO), a CBP/p300 inhibitor (CPI-637; iCBP; 20 μM), or a BET inhibitor (JQ1; 2 μM) alone or a combination of CPI-637 and JQ1. After 72 hours, cells were subjected to measurement of cell growth by an MTS assay. In each cell type (EV and F133V), the OD value in each group was normalized by the value in the control (vehicle) group.

Cc1sc2c(c1C)C(c1ccc(Cl)cc1)=N[C@@H](CC(=O)OC(C)(C)C)c1nnc(C)n1-2 [JQ1]
IC50 (DU145 cells [1]; DU145 BRD4 KD (shRNA knockdown)): 278 nM | IC50 (DU145 cells [1]; DU145 DUB3 OE (overexpression)): 576 nM | IC50 (DU145 cells [1]; DU145 DUB3 OE BRD4 KD): 297 nM | IC50 (DU145 cells [1]; DU145 EV (control)): 421 nM | sensitivity of cell growth to JQ1 (DU145 cells [2]; DUB3-knockdown DU145 cells versus control knockdown cells): much more sensitive | resistance of cell growth by DUB3 overexpression (DU145 cells [2]; DUB3-overexpressing DU145 cells): conferred resistance | sensitivity of cell growth to JQ1 (DU145 cells [2]; SPOP F133V-expressing DU145 cells): JQ1 resistance | sensitivity of cell growth to JQ1 after DUB3 knockdown (DU145 cells [2]; SPOP-F133V cells with DUB3 shRNA): sensitized
